What was measured:
diabetic ob/ob mice = test: Treatment of diabetic ob/ob mice with UD1 and metformin: post-prandial glucose; type: in vivo; conditions: 75 mg/kg UD1, 100 mg/kg Met; for mean post-prandial glucose level / mean glucose level: n=10; for mean glucose level: time 0 hours (baseline)
Experimental: Before treatment, the mice were assigned to four groups based on baseline glucose levels and body weight (n=10 for each group). Each group of mice was dosed with one of the following: (1) a control substance; (2) 75 mg/kg UD1; (3) 100 mg/kg metformin (Met); or (4) 75 mg/kg UD1 and 100 mg/kg metformin (Met). Post-prandial glucose was measured at time points of 1, 3, 5, 7, and 9 hours following dosing.

[1] = Pharmacokinetic evaluation of three oral UD1 dosage forms in male beagle dogs; type: in vivo; conditions: 100 mg of UD1, fasted, mean of 3 dogs
Experimental: For all nine dogs, 100 mg of UD1 was administered orally. Each dog was dosed in a fasted state, where food was provided 4 hours following dosing. Blood samples were taken for pharmacokinetic (PK) evaluation at the following time intervals following dosing: 0.5, 1.0, 2.0, 4.0, 6.0, 8.0, 12.0, and 24.0 hours.

SMILES	change in glucose levels relative to control, AUC 0-9 hrs (diabetic ob/ob mice)	mean post-prandial glucose level (diabetic ob/ob mice; 1 hour following dosing)	mean post-prandial glucose level (diabetic ob/ob mice; 3 hours following dosing)	mean post-prandial glucose level (diabetic ob/ob mice; 5 hours following dosing)	mean post-prandial glucose level (diabetic ob/ob mice; 7 hours following dosing)	mean post-prandial glucose level (diabetic ob/ob mice; 9 hours following dosing)	mean glucose level (diabetic ob/ob mice)	AUC0-∞ [1]	Cmax [1]
CN(C)C(=N)NC(=N)N [Met, N,N-dimethylimidodicarbonimidic diamide, reference compound]	-39 mg·h/dL	357 mg/dL	334 mg/dL	459 mg/dL	501 mg/dL	484 mg/dL	389 mg/dL		
CCCO[C@H]1CC[C@H](N(C(=O)Nc2ncc(SCC(=O)O)s2)C2CCCCC2)CC1.CN(C)C(=N)NC(=N)N [Metformin Salt, 1,1-dimethylbiguanide salt of {2-[3-cyclohexyl-3-(trans-4-propoxy-cyclohexyl)-ureido]-thiazol-5-ylsulfanyl}-acetic acid]								15802 ng·h/mL	6985 ng/mL
CCCO[C@H]1CC[C@H](N(C(=O)Nc2ncc(SCC(=O)O)s2)C2CCCCC2)CC1 [UD1, {2-[3-cyclohexyl-3-(trans-4-propoxy-cyclohexyl)-ureido]-thiazol-5-ylsulfanyl}-acetic acid]	-748 mg·h/dL	321 mg/dL	254 mg/dL	376 mg/dL	382 mg/dL	394 mg/dL	391 mg/dL		

— patent US9359313B2, “Use of metformin in combination with a glucokinase activator and compositions comprising metformin and a glucokinase activator” (vTv Therapeutics LLC, priority 2010, dated 2016)
